{"source": "patent US12186328B2", "about": "“Use of CSA compounds to stimulate stem cells and hair growth” (Brigham Young University, priority 2019, dated 2025)", "key": {"[1]": {"test_system": "hair loss associated with a dermal fungal infection", "experiment": "Horse with \"summer itch\" hair loss treated with a composition including CSA-44", "type": "in vivo", "from_the_text": "A treatment composition including CSA-44 was applied to a horse having a “summer itch” condition associated with a dermal fungal infection. […] As shown, the subject horse had several patches of visible hair loss. […] As shown, hair had regrown to completely fill in the previous patches and the regrown hair was thick and full. Typical time for hair to grow back on a horse following treatment of such a fungal infection is approximately 28 days. The CSA-based treatment therefore regenerated hair growth 1.56 times faster than a conventional treatment."}, "[2]": {"test_system": "hair growth on depilated dorsal skin of C57BL/6 mice", "experiment": "Mouse model of hair regrowth after shaving and depilation, topical CSA-44 cream", "type": "in vivo, mice (C57BL/6)", "conditions": "for Percentage Change in Hair growth: Day 21, compared with vehicle treated control group; for Hair growth scoring Day 1 / Hair growth scoring Day 3 / Hair growth scoring Day 7 / Hair growth scoring Day 10 / Hair growth scoring Day 14 / Hair growth scoring Day 17: Mean ± SE, n = 8, score 0-10", "from_the_text": "A mouse model was used to test the effectiveness of a CSA-based treatment composition in stimulating stem cells and regenerating hair growth. Male C57BL/6 mice aged 8 weeks, were housed under environmentally monitored conditions and were fed a standard rodent diet. The hair on the dorsal surface of each mouse was shaved with an animal clipper, which was then followed by application of a depilatory cream to clean the remaining hair as described by Jung M K et al (Life Sci. 2015 May 1; 128:39-46). The mice were then allowed to rest for 24 h.\nOn the day of experiment, all the animals were weighed and randomized into different treatment groups (n=8) according to body weight. Randomized animals were identified by individual animal marking and cage cards were used for group identification.\nThe animals of Group 1, the control mice, were treated topically with the cream-based vehicle. The animals of Group 2 were treated topically with 100 mg of […] once daily for 3 weeks. The animals in Group 3 were treated topically with 100 mg of 2.0% CSA-44 test compound once every other day for 3 weeks.\nA preliminary tolerability study was conducted in C57BL/6 mice for selecting an appropriate well tolerated dose for the present efficacy study. Based on the results from the preliminary dose tolerability study, 100 mg of a formulation containing 0.5% CSA-44 was uniformly applied topically on the shaven areas of the dorsal skin once daily for 3 weeks. Similarly, 100 mg of 2% CSA-44 formulation was applied topically every other day for 3 weeks. 100 mg of cream vehicle was applied topically on the shaved areas once daily for 3 weeks.\nThe hair-growth score was evaluated using the scoring pattern below as described by Vegesna et al (Endocrinology 143(11):4389-4396). A score of ‘0’ indicates no change in the amount of hair growth compared with the hair-loss induction day and a score of ‘10’ indicates full hair growth on the entire site on the dorsal skin. Darkening and hair-growth rate was monitored twice weekly for 3 weeks. Images of the dorsal skin of the mice were captured using a digital camera at weekly intervals to notice the start of hair regrowth period and the hair regrowth pattern.\nBody weight of the animals were recorded once prior to randomization (pre dose) and twice weekly during the course of the study. All animals were observed once daily for clinical signs and twice daily (morning and evening) for mortality and morbidity. No mortality was observed during the study period. Animals were sacrificed at the end of the study period by following a standard protocol using CO2 induced euthanasia. Results\nHair growth score and body weight were recorded twice weekly during the study period. The percentage (%) change in hair growth was calculated on Day 21 by comparing the treated mice with the vehicle treated control group."}, "[3]": {"conditions": "0.5% CSA-44, topical, once daily for 3 weeks"}, "[4]": {"conditions": "2% CSA-44, topical, once every other day for 3 weeks"}}}
{"smiles": "CCCCCCCCOC(=O)CC[C@@H](C)[C@H]1CC[C@H]2[C@@H]3[C@H](OC(=O)CCN)C[C@@H]4C[C@H](OC(=O)CCN)CC[C@]4(C)[C@H]3C[C@H](OC(=O)CCN)[C@]12C", "note": "[CSA-44]", "values": [{"measurement": "Hair growth regeneration speed versus conventional treatment", "setting": "[1]; 18 days versus typical approximately 28 days", "value": 1.56, "unit": "times faster"}, {"measurement": "Treatment time after which hair had regrown to completely fill in the previous patches", "setting": "[1]; horse, composition including CSA-44", "value": 18, "unit": "days"}, {"measurement": "Percentage Change in Hair growth", "setting": "[2]; [3]", "value": 72, "unit": "%"}, {"measurement": "Hair growth scoring Day 1", "setting": "[2]; [3]", "value": 0.00}, {"measurement": "Hair growth scoring Day 3", "setting": "[2]; [3]", "value": 0.25}, {"measurement": "Hair growth scoring Day 7", "setting": "[2]; [3]", "value": 0.50}, {"measurement": "Hair growth scoring Day 10", "setting": "[2]; [3]", "value": 1.38}, {"measurement": "Hair growth scoring Day 14", "setting": "[2]; [3]", "value": 2.63}, {"measurement": "Hair growth scoring Day 17", "setting": "[2]; [3]", "value": 4.88}, {"measurement": "Percentage Change in Hair growth", "setting": "[2]; [4]", "value": 66, "unit": "%"}, {"measurement": "Hair growth scoring Day 1", "setting": "[2]; [4]", "value": 0.00}, {"measurement": "Hair growth scoring Day 3", "setting": "[2]; [4]", "value": 0.38}, {"measurement": "Hair growth scoring Day 7", "setting": "[2]; [4]", "value": 0.50}, {"measurement": "Hair growth scoring Day 10", "setting": "[2]; [4]", "value": 1.50}, {"measurement": "Hair growth scoring Day 14", "setting": "[2]; [4]", "value": 2.50}, {"measurement": "Hair growth scoring Day 17", "setting": "[2]; [4]", "value": 4.13}, {"measurement": "Skin area with black hair compared with control group", "setting": "[2]; CSA-44 treated groups, end of 3 weeks", "value": "larger"}]}
